Source: patent publication US10428082B2, “Triazole derivatives of melampomagnolide B and methods of use thereof” (BioVentures, LLC, priority 2016, dated 2019)
Where two headings read alike, the source gives them in different places.

Experiments:
M9 ENL1 cell line = assay: Anti-leukemic activity, Annexin V/7-AAD flow cytometry; assay type: cell-based; settings: 24 h of drug exposure, read-out: M9ENL1 (EC50)
Protocol: The newly synthesized triazole derivatives of melampomagnolide B were screened for anti-leukemic activity against M9 ENL1 and primary AML cell lines; the latter were obtained with informed consent from human patients. Evaluations were performed after 24 h of drug exposure using flow cytometric analysis by labeling with Annexin V and 7-aminoactinomycin D (7-AAD) to delineate apoptotic cell populations. In all experiments PTL was included as a reference control.

786-0 = assay: NCI 60 growth inhibition; assay type: cell-based, human; settings: 786-0, Renal Cancer
Protocol: (§1) The above triazole derivatives of melampomagnolide B were evaluated for growth inhibitory properties against an NCI panel of 60 human cancer cell lines derived from nine human cancer cell types, grouped into disease sub-panels that represent leukemia, lung, colon, central nervous system (CNS), melanoma, renal, ovary, breast, and prostate cancer cells. Growth inhibitory (GI50) effects were measured as a function of the variation of optical density as a percentage of control.

A498 = assay: NCI 60 growth inhibition; assay type: cell-based, human; settings: A498, Renal Cancer
Protocol: as §1

A549/ATCC = assay: NCI 60 growth inhibition; assay type: cell-based, human; settings: Non-Small Cell Lung Cancer
Protocol: as §1

ACHN = assay: NCI 60 growth inhibition; assay type: cell-based, human; settings: Renal Cancer
Protocol: as §1

BT-549 = assay: NCI 60 growth inhibition; assay type: cell-based, human; settings: BT-549, Breast Cancer
Protocol: as §1

CAKI-1 = assay: NCI 60 growth inhibition; assay type: cell-based, human; settings: CAKI-1, Renal Cancer
Protocol: as §1

COLO 205 = assay: NCI 60 growth inhibition; assay type: cell-based, human; settings: COLO 205, Colon Cancer
Protocol: as §1

DU-145 = assay: NCI 60 growth inhibition; assay type: cell-based, human; settings: DU-145, Prostate Cancer
Protocol: as §1

EKVX = assay: NCI 60 growth inhibition; assay type: cell-based, human; settings: Non-Small Cell Lung Cancer
Protocol: as §1

HL-60(TB) = assay: NCI 60 growth inhibition; assay type: cell-based, human; settings: Leukemia
Protocol: as §1

HOP-62 = assay: NCI 60 growth inhibition; assay type: cell-based, human; settings: HOP-62, Non-Small Cell Lung Cancer
Protocol: as §1

HOP-92 = assay: NCI 60 growth inhibition; assay type: cell-based, human; settings: HOP-92, Non-Small Cell Lung Cancer
Protocol: as §1

HS 578T = assay: NCI 60 growth inhibition; assay type: cell-based, human; settings: Breast Cancer
Protocol: as §1

HT29 = assay: NCI 60 growth inhibition; assay type: cell-based, human
Protocol: as §1

IGROV1 = assay: NCI 60 growth inhibition; assay type: cell-based, human; settings: IGROV1, Ovarian Cancer
Protocol: as §1

K-562 = assay: NCI 60 growth inhibition; assay type: cell-based, human; settings: K-562, Leukemia
Protocol: as §1

M14 = assay: NCI 60 growth inhibition; assay type: cell-based, human; settings: M14, Melanoma
Protocol: as §1

MCF7 = assay: NCI 60 growth inhibition; assay type: cell-based, human; settings: MCF7, Breast Cancer
Protocol: as §1

MDA-MB-231/ATCC = assay: NCI 60 growth inhibition; assay type: cell-based, human; settings: Breast Cancer
Protocol: as §1

MDA-MB-435 = assay: NCI 60 growth inhibition; assay type: cell-based, human; settings: MDA-MB-435, Melanoma
Protocol: as §1

NCI-H226 = assay: NCI 60 growth inhibition; assay type: cell-based, human; settings: NCI-H226, Non-Small Cell Lung Cancer
Protocol: as §1

NCI-H23 = assay: NCI 60 growth inhibition; assay type: cell-based, human; settings: NCI-H23, Non-Small Cell Lung Cancer
Protocol: as §1

NCI-H460 = assay: NCI 60 growth inhibition; assay type: cell-based, human; settings: NCI-H460, Non-Small Cell Lung Cancer
Protocol: as §1

NCI-H522 = assay: NCI 60 growth inhibition; assay type: cell-based, human; settings: NCI-H522, Non-Small Cell Lung Cancer
Protocol: as §1

OVCAR-3 = assay: NCI 60 growth inhibition; assay type: cell-based, human; settings: OVCAR-3, Ovarian Cancer
Protocol: as §1

OVCAR-4 = assay: NCI 60 growth inhibition; assay type: cell-based, human; settings: OVCAR-4, Ovarian Cancer
Protocol: as §1

RPMI-8226 = assay: NCI 60 growth inhibition; assay type: cell-based, human; settings: RPMI-8226, Leukemia
Protocol: as §1

RXF 393 = assay: NCI 60 growth inhibition; assay type: cell-based, human
Protocol: as §1

SF-295 = assay: NCI 60 growth inhibition; assay type: cell-based, human; settings: SF-295, CNS Cancer
Protocol: as §1

SK-OV-3 = assay: NCI 60 growth inhibition; assay type: cell-based, human; settings: SK-OV-3, Ovarian Cancer
Protocol: as §1

T-47D = assay: NCI 60 growth inhibition; assay type: cell-based, human; settings: Breast Cancer
Protocol: as §1

U251 = assay: NCI 60 growth inhibition; assay type: cell-based, human; settings: U251, CNS Cancer
Protocol: as §1

UO-31 = assay: NCI 60 growth inhibition; assay type: cell-based, human; settings: UO-31, Renal Cancer
Protocol: as §1

[1] = system: NCI panel of 60 human cancer cell lines; assay: NCI 60 growth inhibition, ranges over groups of cell lines; assay type: cell-based; settings: several cell lines in the panel, read-out: GI50
Protocol: as §1

SK-MEL-28 = assay: NCI 60 growth inhibition; assay type: cell-based, human; settings: SK-MEL-28, Melanoma, Table 3
Protocol: as §1

With `C=C1C(=O)O[C@H]2[C@H]1CC/C(Cn1cc(CCC)nn1)=C\CC[C@@]1(C)O[C@@H]21` [JVM 4-16, (1aR,7aS,10aS,10bS,E)-1a-Methyl-8-methylene-5((4-propyl-1H-1,2,3-triazol-1-yl)methyl)-2,3,6,7,7a,8,10a,10b-octahydrooxireno[2′,3′:9,10]cyclodeca[1,2-b]furan-9(1aH)-one] as the compound, how does the EC50 (M9 ENL1 cell line; M9-ENL1, 24 h) read?
Its EC50 is 5.5 µM.

What about the GI50 (786-0; Homo sapiens, Table 2) of the same compound?
The GI50 was 11.3 µM.

And the GI50 (A498; Homo sapiens, Table 2)?
Its GI50 is 21.5 µM.

What about the GI50 (A549/ATCC; Homo sapiens, Table 2) of the same compound?
The GI50 was 22.3 µM.

And the GI50 (ACHN; Homo sapiens, Table 2)?
The GI50 was 3.81 µM.

What about the GI50 (BT-549; Homo sapiens, Table 2) of the same compound?
The GI50 was 14.2 µM.

And the GI50 (CAKI-1; Homo sapiens, Table 2)?
Its GI50 is 3.91 µM.

What about the GI50 (COLO 205; Homo sapiens, Table 2) of the same compound?
The GI50 was 5.22 µM.

And the GI50 (DU-145; Homo sapiens, Table 2)?
Its GI50 is 4.32 µM.

And the GI50 (EKVX; Homo sapiens, Table 2)?
The GI50 was 11.5 µM.

What about the GI50 (HL-60(TB); Homo sapiens, HL-60(TB), Table 2) of the same compound?
The GI50 was 3.53 µM.

What about the GI50 (HOP-62; Homo sapiens, Table 2) of the same compound?
Its GI50 is 14.1 µM.

And the GI50 (HOP-92; Homo sapiens, Table 2)?
Its GI50 is 2.94 µM.

And the GI50 (HS 578T; Homo sapiens, Table 2)?
The GI50 was 23.4 µM.

And the GI50 (HT29; Homo sapiens, HT-29, Colon Cancer, Table 2)?
The GI50 was 5.5 µM.

What about the GI50 (IGROV1; Homo sapiens, IGROV-1, Table 2) of the same compound?
The GI50 was 4.63 µM.

What about the GI50 (K-562; Homo sapiens, K562, Table 2) of the same compound?
Its GI50 is 3.96 µM.

What about the GI50 (M14; Homo sapiens, Table 2) of the same compound?
Its GI50 is 3.99 µM.

And the GI50 (MCF7; Homo sapiens, Table 2)?
Its GI50 is 3.35 µM.

And the GI50 (MDA-MB-231/ATCC; Homo sapiens, Table 2)?
Its GI50 is 4.22 µM.

And the GI50 (MDA-MB-435; Homo sapiens, Table 2)?
The GI50 was 10.4 µM.

And the GI50 (NCI-H226; Homo sapiens, Table 2)?
The GI50 was 12.6 µM.

And the GI50 (NCI-H23; Homo sapiens, Table 2)?
Its GI50 is 13.6 µM.

What about the GI50 (NCI-H460; Homo sapiens, Table 2) of the same compound?
Its GI50 is 21.2 µM.

And the GI50 (NCI-H522; Homo sapiens, Table 2)?
Its GI50 is 3.06 µM.

And the GI50 (OVCAR-3; Homo sapiens, Table 2)?
The GI50 was 3.96 µM.

What about the GI50 (OVCAR-4; Homo sapiens, Table 2) of the same compound?
Its GI50 is 9.46 µM.

What about the GI50 (RPMI-8226; Homo sapiens, Table 2) of the same compound?
The GI50 was 5.52 µM.

What about the GI50 (RXF 393; Homo sapiens, RXF 393, RXF 393, Renal Cancer, Table 2) of the same compound?
The GI50 was 4.8 µM.

What about the GI50 (SF-295; Homo sapiens, Table 2) of the same compound?
Its GI50 is 18.5 µM.

What about the GI50 (SK-OV-3; Homo sapiens, Table 2) of the same compound?
The GI50 was 26 µM.

What about the GI50 (T-47D; Homo sapiens, T47D, Table 2) of the same compound?
The GI50 was 4.11 µM.

And the GI50 (U251; Homo sapiens, U-251, Table 2)?
Its GI50 is 14.1 µM.

And the GI50 (UO-31; Homo sapiens, Table 2)?
Its GI50 is 11.1 µM.

What about the GI50 [1] of the same compound?
The GI50 was under 5 µM.

`C=C1C(=O)O[C@H]2[C@H]1CC/C(Cn1cc(-c3ccc(N)cc3)nn1)=C\CC[C@@]1(C)O[C@@H]21` [JVM 4-58] was tested. Which EC50 (M9 ENL1 cell line) did it give?
The EC50 was 2 µM.

And the GI50 (786-0; Table 3)?
Its GI50 is 1.98 µM.

What about the GI50 (A498; Table 3) of the same compound?
The GI50 was 10.4 µM.

What about the GI50 (A549/ATCC; Table 3) of the same compound?
The GI50 was 11.9 µM.

What about the GI50 (ACHN; Table 3) of the same compound?
Its GI50 is 2.65 µM.

What about the GI50 (BT-549; Table 3) of the same compound?
Its GI50 is 3.05 µM.

What about the GI50 (CAKI-1; Table 3) of the same compound?
The GI50 was 1.77 µM.

And the GI50 (COLO 205; Table 3)?
The GI50 was 1.79 µM.

And the GI50 (DU-145; Table 3)?
The GI50 was 3.65 µM.

What about the GI50 (EKVX; Table 3) of the same compound?
Its GI50 is 3.89 µM.

And the GI50 (HL-60(TB); HL-60 (TB), Table 3)?
Its GI50 is 2.23 µM.

And the GI50 (HOP-62; Table 3)?
The GI50 was 10.2 µM.

And the GI50 (HOP-92; Table 3)?
Its GI50 is 2.13 µM.

And the GI50 (HS 578T; Table 3)?
Its GI50 is 4.46 µM.

What about the GI50 (HT29; HT29, Colon Cancer, Table 3) of the same compound?
The GI50 was 2.14 µM.

And the GI50 (IGROV1; Table 3)?
The GI50 was 2.96 µM.

What about the GI50 (K-562; Table 3) of the same compound?
Its GI50 is 2.99 µM.

What about the GI50 (M14; Table 3) of the same compound?
Its GI50 is 2.97 µM.

And the GI50 (MCF7; Table 3)?
The GI50 was 2.41 µM.

And the GI50 (MDA-MB-231/ATCC; Table 3)?
The GI50 was 3.45 µM.

And the GI50 (MDA-MB-435; Table 3)?
Its GI50 is 3.01 µM.

And the GI50 (NCI-H226; Table 3)?
Its GI50 is 3.34 µM.

And the GI50 (NCI-H23; Table 3)?
The GI50 was 2.49 µM.

What about the GI50 (NCI-H460; Table 3) of the same compound?
The GI50 was 10.4 µM.

What about the GI50 (NCI-H522; Table 3) of the same compound?
The GI50 was 1.37 µM.

And the GI50 (OVCAR-3; Table 3)?
The GI50 was 1.62 µM.

What about the GI50 (OVCAR-4; Table 3) of the same compound?
The GI50 was 4.9 µM.

And the GI50 (RPMI-8226; Table 3)?
The GI50 was 2.75 µM.

And the GI50 (RXF 393; RXF 393, Renal Cancer, Table 3)?
Its GI50 is 1.41 µM.

And the GI50 (SF-295; Table 3)?
The GI50 was 12.1 µM.

What about the GI50 (SK-MEL-28) of the same compound?
The GI50 was 2.71 µM.

And the GI50 (SK-OV-3; Table 3)?
Its GI50 is 18.3 µM.

And the GI50 (T-47D; Table 3)?
The GI50 was 2.23 µM.

And the GI50 (U251; Table 3)?
Its GI50 is 4.16 µM.

And the GI50 (UO-31; Table 3)?
The GI50 was 1.87 µM.
